Data on ten sequences can be found in patent US6869933B2, “HIV-specific CTL inducing peptides and medicaments for preventing or treating AIDS comprising the peptides” (Ajinomoto Co., Inc., priority 1999, dated 2005).

Assay [1] concerns HLA-A*1101 positive Tm EBV transformed cells pulsed with the peptide. Briefly: Induction of specific CTL after a single stimulation with the peptides in PBMC from HIV-subtype E-seropositive patients carrying HLA-A11. The settings on record: for patients from whom the specific CTL could be induced: HIV-1 subtype E infected patients carrying HLA-A11.
Assay [2] shares this test system. Briefly: Induction of specific CTL after a single stimulation with the peptides in PBMC from HIV-subtype B-seropositive patients carrying HLA-A11.
Assay [3] shares this test system. Briefly: Induction of specific CTL by a single stimulation with the peptides in PBL from HIV-seropositive patients carrying HLA-A11 (51Cr release CTL assay). The settings on record: for patients in whom peptide-specific CTL activity was induced: six HIV-1 seropositive patients carrying HLA-A*1101.
Assay [4] relates to C1R-A*1101 cells infected with vaccinia virus expressing HIV-1 Pol protein or Env protein. Type of assay: cell-based, human.
The mark [5] stands for this setting: patient TT-005, effector:target 40:1, peptide 1 μM.
[6] abbreviates: patient TT-007, effector:target 40:1, peptide 1 μM.
[7] abbreviates: patient TT-008, effector:target 40:1, peptide 1 μM.
[8] abbreviates: patient TT-009, effector:target 40:1, peptide 1 μM.
[9] abbreviates: patient TU-002, effector:target 40:1, peptide 1 μM.
[10] abbreviates: patient TU-003, effector:target 40:1, peptide 1 μM.
Where [11] appears, read: patient TU-007, effector:target 40:1, peptide 1 μM.
Where [12] appears, read: patient KI-005, effector:target 40:1, peptide 1 μM.
Where [13] appears, read: patient KI-015, effector:target 40:1, peptide 1 μM.
Where [14] appears, read: patient KI-030, effector:target 40:1, peptide 1 μM.
Where [15] appears, read: patient KI-035, effector:target 40:1, peptide 1 μM.
Where [16] appears, read: patient KI-036, effector:target 40:1, peptide 1 μM.
Where [17] appears, read: patient five, effector:target 5:1, peptide 1 μM.
The mark [18] stands for this setting: patient five, effector:target 40:1, peptide 1 μM.
Where [19] appears, read: patient four, effector:target 5:1, peptide 1 μM.
Setting [20] is: patient four, effector:target 40:1, peptide 1 μM.
Setting [21] is: patient one, effector:target 5:1, peptide 1 μM.
Setting [22] is: patient one, effector:target 40:1, peptide 1 μM.
Setting [23] is: patient six, effector:target 5:1, peptide 1 μM.
Where [24] appears, read: patient six, effector:target 40:1, peptide 1 μM.
The mark [25] stands for this setting: patient three, effector:target 5:1, peptide 1 μM.
Setting [26] is: patient three, effector:target 40:1, peptide 1 μM.
[27] abbreviates: patient two, effector:target 5:1, peptide 1 μM.
[28] abbreviates: patient two, effector:target 40:1, peptide 1 μM.

Marks after values point to notes of the source that are not given here.

Regarding “QIIEELIKK (Human immunodeficiency virus type 1) [Pol 675-9-5E]”, the “patients from whom the specific CTL could be induced” value in assay [1] is given as “five of seven”. For the same sequence, the “relative cell lysis (%)” value in assay [1] (setting [5]) is given as 3.4* %; in assay [1] (setting [6]) it was 55.1%; in assay [1] (setting [7]), 23.4%; in assay [1] (setting [8]), 63.8%; in assay [1] (setting [9]) it was 3.4%; in assay [1] (setting [10]) it was 0.2%. The “relative cell lysis (%)” value in assay [1] (setting [11]) turned out to be 5.7%.

Take “ALDLSHFLK (Human immunodeficiency virus type 1) [Nef 84-9-2L]”: the “patients from whom the specific CTL could be induced” value in assay [2] (HIV-1 subtype B infected patients carrying HLA-A11) is listed as “three of five”. Further, the “relative cell lysis (%)” value in assay [2] (setting [12]) came out at 68.3%; in assay [2] (setting [13]), 6.3%; in assay [2] (setting [14]), 5.5%; in assay [2] (setting [15]), 16.4%; in assay [2] (setting [16]), 50.4%.

In the case of IYQEPFKNLK [Pol496-505], the “relative cell lysis (%)” value in assay [3] (setting [17]) was −2.8%; in assay [3] (setting [18]), 4.9%; in assay [3] (setting [19]) it was 4.6%; in assay [3] (setting [20]), 8.00%; in assay [3] (setting [21]), −2.9%; in assay [3] (setting [22]) it was −0.6%. The “relative cell lysis (%)” value is 3.0% in assay [3] (setting [23]); 12.9% in assay [3] (setting [24]); 3.2% in assay [3] (setting [25]); 5.1% in assay [3] (setting [26]); 2.6% in assay [3] (setting [27]); 2.5% in assay [3] (setting [28]). In assay [3], the “patients in whom peptide-specific CTL activity was induced” value was “one of six patients”.

Take SVITQACPK [SF2-Env202-9]: the “killing of vaccinia-infected target cells by peptide-specific CTL clones (endogenous processing and presentation by HLA-A*1101)” value in assay [4] is “contain HLA-A*1101 restricted HIV-1 specific CTL epitopes”.

As to QIYAGIKVK [SF2-Pol424-9], in assay [4], the “killing of vaccinia-infected target cells by peptide-specific CTL clones (endogenous processing and presentation by HLA-A*1101)” value was “contain HLA-A*1101 restricted HIV-1 specific CTL epitopes”. Further, the “relative cell lysis (%)” value in assay [3] (setting [17]) is on record as −1.7%; in assay [3] (setting [18]) it was −3.7%; in assay [3] (setting [19]), 11.7%; in assay [3] (setting [20]), 27.4** %; in assay [3] (setting [21]), 3.1%; in assay [3] (setting [22]) it was −0.2%. For the same sequence, the “relative cell lysis (%)” value in assay [3] (setting [23]) is 2.0%; in assay [3] (setting [24]), 2.3%; in assay [3] (setting [25]) it was −3.3%; in assay [3] (setting [26]), 7.0%; in assay [3] (setting [27]), −0.2%; in assay [3] (setting [28]) it was 4.9%. The “patients in whom peptide-specific CTL activity was induced” value in assay [3] is listed as “one of six patients”.

On to “AVDLSHFLK (Human immunodeficiency virus type 1) [Nef 84-9, reference compound]”, for which the “relative cell lysis (%)” value is on record as 25.3* % in assay [2] (setting [12]); 68.6% in assay [2] (setting [13]); 6.6% in assay [2] (setting [14]); 5.8% in assay [2] (setting [15]); 16.5% in assay [2] (setting [16]).

With “QIIEKLIEK (Human immunodeficiency virus type 1) [Pol 675-9-5K8E]”, the “patients from whom the specific CTL could be induced” value in assay [1] is listed as “two of six”. Also, the “relative cell lysis (%)” value in assay [1] (setting [5]) is −4.1%; in assay [1] (setting [6]) it was 21.7%; in assay [1] (setting [7]), 10.3%; in assay [1] (setting [8]), 4.5%; in assay [1] (setting [9]), 5.6%; in assay [1] (setting [10]) it was −5.6%.

Consider “AFDLSFFLK (Human immunodeficiency virus type 1) [Nef 84-9-2F6F]”, for which, in assay [1], the “patients from whom the specific CTL could be induced” value is recorded as “six of seven”. The “relative cell lysis (%)” value is −1.3% in assay [1] (setting [5]); 24.6% in assay [1] (setting [6]); 75.5% in assay [1] (setting [7]); 76.5% in assay [1] (setting [8]); 15.4% in assay [1] (setting [9]); 41.2% in assay [1] (setting [10]). The “relative cell lysis (%)” value in assay [1] (setting [11]) worked out at 64.2%.

Regarding “DPNPQEVVL (Human immunodeficiency virus type 1) [Env77-85]”, the “relative cell lysis (%)” value in assay [3] (setting [17]) is recorded as −3.6%; in assay [3] (setting [18]) it was 1.7%; in assay [3] (setting [19]), 1.5%; in assay [3] (setting [20]) it was 2.5%; in assay [3] (setting [21]) it was −0.1%; in assay [3] (setting [22]), 0.2%. Besides, the “relative cell lysis (%)” value in assay [3] (setting [23]) is listed as 0.0%; in assay [3] (setting [24]), 0.5%; in assay [3] (setting [25]), −2.8%; in assay [3] (setting [26]), −0.3%; in assay [3] (setting [27]), −0.4%; in assay [3] (setting [28]) it was −1.1%.

Turning to “AIFQSSMTK (Human immunodeficiency virus type 1) [Pol313-321]”, the “relative cell lysis (%)” value is listed as −3.7% in assay [3] (setting [17]); 2.8% in assay [3] (setting [18]); 26.8% in assay [3] (setting [19]); 53.5% in assay [3] (setting [20]); 3.7% in assay [3] (setting [21]); 13.6% in assay [3] (setting [22]). The “relative cell lysis (%)” value in assay [3] (setting [23]) was 1.1%; in assay [3] (setting [24]), 0.7%; in assay [3] (setting [25]) it was 2.3%; in assay [3] (setting [26]) it was −2.4%; in assay [3] (setting [27]) it was 8.2%; in assay [3] (setting [28]) it was 31.1%. In addition, the “patients in whom peptide-specific CTL activity was induced” value in assay [3] is listed as “three patients”.
